Experimental data reported in PubChem BioAssay (NCI).
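Cultured in 96-well plates, cells were exposed to test compound for 48 hours across five concentrations. GI50 is the concentration that inhibits growth by half. The concentration for full growth arrest is given as TGI.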

What was measured:
Assay in all cases: NCI tumour cell line growth inhibition, 48 h
[1] = test system: 786-0 renal
[2] = test system: A498 renal
[3] = test system: A549 NSCLC
[4] = test system: ACHN renal
[5] = test system: BT-549 breast
[6] = test system: CAKI-1 renal
[7] = test system: CCRF-CEM leukemia
[8] = test system: COLO 205 colon
[9] = test system: DU-145 prostate
[10] = test system: EKVX NSCLC
[11] = test system: HCC-2998 colon
[12] = test system: HCT-116 colon
[13] = test system: HCT-15 colon
[14] = test system: HL-60(TB) leukemia
[15] = test system: HOP-62 NSCLC
[16] = test system: HOP-92 NSCLC
[17] = test system: HS 578T breast
[18] = test system: HT29 colon
[19] = test system: IGROV1 ovarian
[20] = test system: K-562 leukemia
[21] = test system: KM12 colon
[22] = test system: LOX IMVI melanoma
[23] = test system: M14 melanoma
[24] = test system: MALME-3M melanoma
[25] = test system: MCF7 breast
[26] = test system: MDA-MB-231 breast
[27] = test system: MDA-MB-435
[28] = test system: MDA-MB-468 breast
[29] = test system: NCI-H226 lung
[30] = test system: NCI-H23 lung
[31] = test system: NCI-H460 lung
[32] = test system: NCI-H522 lung
[33] = test system: OVCAR-3 ovarian
[34] = test system: OVCAR-4 ovarian
[35] = test system: OVCAR-5 ovarian
[36] = test system: OVCAR-8 ovarian
[37] = test system: PC-3 prostate
[38] = test system: RPMI-8226 leukemia
[39] = test system: RXF 393 renal
[40] = test system: SF-268 CNS
[41] = test system: SF-295 CNS
[42] = test system: SF-539 CNS
[43] = test system: SK-MEL-2 melanoma
[44] = test system: SK-MEL-28 melanoma
[45] = test system: SK-MEL-5 melanoma
[46] = test system: SK-OV-3 ovarian
[47] = test system: SN12C renal
[48] = test system: SNB-19 CNS
[49] = test system: SNB-75 CNS
[50] = test system: SR leukemia
[51] = test system: SW-620 colon
[52] = test system: T-47D breast
[53] = test system: TK-10 renal
[54] = test system: U251 CNS
[55] = test system: UACC-257 melanoma
[56] = test system: UACC-62 melanoma
[57] = test system: UO-31 renal

Structure (SMILES): Cn1nc(C(F)(F)F)cc1-c1cc(Cl)c(COc2ccc(Cl)cc2)c(-c2ccc(Cl)c(C(F)(F)F)c2)c1O
- GI50 [1]: 2.62 µM
- TGI [1]: 7.97 µM
- GI50 [2]: 2.53 µM
- TGI [2]: 7.3 µM
- GI50 [3]: 3.36 µM
- TGI [3]: 15.5 µM
- GI50 [4]: 2.23 µM
- TGI [4]: 9.21 µM
- GI50 [5]: 1.85 µM
- TGI [5]: 7.48 µM
- GI50 [6]: 2.17 µM
- TGI [6]: 7.56 µM
- GI50 [7]: 1.75 µM
- TGI [7]: 10.8 µM
- GI50 [8]: 1.38 µM
- TGI [8]: 2.75 µM
- GI50 [9]: 3.08 µM
- TGI [9]: 14.1 µM
- GI50 [10]: 2.51 µM
- TGI [10]: 10.4 µM
- GI50 [11]: 1.68 µM
- TGI [11]: 10.5 µM
- GI50 [12]: 1.71 µM
- TGI [12]: 10.5 µM
- GI50 [13]: 1.28 µM
- TGI [13]: 7.14 µM
- GI50 [14]: 2.18 µM
- TGI [14]: 5.69 µM
- GI50 [15]: 3.26 µM
- TGI [15]: 10.8 µM
- GI50 [16]: 1.61 µM
- TGI [16]: 4.38 µM
- GI50 [17]: 1.82 µM
- TGI [17]: 6.58 µM
- GI50 [18]: 3.36 µM
- TGI [18]: 14.6 µM
- GI50 [19]: 2.92 µM
- TGI [19]: 14.3 µM
- GI50 [20]: 0.509 µM
- TGI [20]: > 100 µM
- GI50 [21]: 2.85 µM
- TGI [21]: 10.8 µM
- GI50 [22]: 3.11 µM
- TGI [22]: 10.6 µM
- GI50 [23]: 2.74 µM
- TGI [23]: 8.16 µM
- GI50 [24]: 1.96 µM
- TGI [24]: 5.16 µM
- GI50 [25]: 1.26 µM
- TGI [25]: 10 µM
- GI50 [26]: 1.88 µM
- TGI [26]: 5.2 µM
- GI50 [27]: 3.02 µM
- TGI [27]: 10.3 µM
- GI50 [28]: 1.95 µM
- TGI [28]: 8.03 µM
- GI50 [29]: 2.72 µM
- TGI [29]: 9.52 µM
- GI50 [30]: 1.45 µM
- TGI [30]: 4.77 µM
- GI50 [31]: 1.27 µM
- TGI [31]: 7.3 µM
- GI50 [32]: 1.79 µM
- TGI [32]: 13.4 µM
- GI50 [33]: 2.26 µM
- TGI [33]: 12.6 µM
- GI50 [34]: 3.11 µM
- TGI [34]: 13.5 µM
- GI50 [35]: 3.83 µM
- TGI [35]: 13.5 µM
- GI50 [36]: 3.09 µM
- TGI [36]: 14.5 µM
- GI50 [37]: 1.57 µM
- TGI [37]: 10.5 µM
- GI50 [38]: 1.06 µM
- TGI [38]: 5.4 µM
- GI50 [39]: 1.64 µM
- TGI [39]: 5.54 µM
- GI50 [40]: 2.33 µM
- TGI [40]: 13.1 µM
- GI50 [41]: 1.88 µM
- TGI [41]: 4.12 µM
- GI50 [42]: 2.06 µM
- TGI [42]: 5.69 µM
- GI50 [43]: 2.09 µM
- TGI [43]: 5.3 µM
- GI50 [44]: 2.88 µM
- TGI [44]: 11.7 µM
- GI50 [45]: 1.18 µM
- TGI [45]: 2.71 µM
- GI50 [46]: 3.02 µM
- TGI [46]: 11 µM
- GI50 [47]: 1.26 µM
- TGI [47]: 7.7 µM
- GI50 [48]: 2.25 µM
- TGI [48]: 13.1 µM
- GI50 [49]: 2 µM
- TGI [49]: 8.07 µM
- GI50 [50]: 2.66 µM
- TGI [50]: > 100 µM
- GI50 [51]: 3.13 µM
- TGI [51]: 12.1 µM
- GI50 [52]: 0.724 µM
- TGI [52]: 8.7 µM
- GI50 [53]: 3.3 µM
- TGI [53]: 15.6 µM
- GI50 [54]: 2.42 µM
- TGI [54]: 14.3 µM
- GI50 [55]: 2.67 µM
- TGI [55]: 10.5 µM
- GI50 [56]: 1.45 µM
- TGI [56]: 4.88 µM
- GI50 [57]: 2.57 µM
- TGI [57]: 8.6 µM
